Measured values: ChEMBL document CHEMBL4342474, “Scaffold and Parasite Hopping: Discovery of New Protozoal Proliferation Inhibitors” (ACS Med Chem Lett, 2020)
≈ marks a conversion by molar mass, not a printed value.

Assays:
[1] = Selectivity index, ratio of TC50 for human HepG2 cells to EC50 for antiplasmodial activity against Plasmodium falciparum D6; type: toxicity
[2] = Intrinsic clearance in rat hepatocytes assessed as per million cells; type: ADME, cell-based, Hepatocyte; conditions: read-out: CLH
Plasmodium falciparum [3] = assay: Antiplasmodial activity against Plasmodium falciparum D6 measured after 72 hrs by SYBR green fluorescence dye based microplate reader analysis; type: functional, organism-based; conditions: D6, 72 h
Trypanosoma cruzi [4] = assay: Antitrypanosomal activity against Trypanosoma cruzi CaI-72 trypomastigotes infected in mouse C2C12 cells measured after 72 hrs by DAPI staining based assay; type: functional, organism-based; conditions: CaI-72, C2C12, 72 h
[5] = Cytotoxicity against mouse C2C12 cells assessed as reduction in cell viability; type: cell-based; conditions: read-out: TC50 (the source's name)
Leishmania major [6] = assay: Antileishmanial activity against Leishmania major amastigotes infected in mouse RAW 264.7 cells by luciferase reporter gene assay; type: functional, organism-based; conditions: RAW264.7
[7] = Selectivity index, ratio of TC50 for mouse C2C12 cells to EC50 for antitrypanosomal activity against Trypanosoma cruzi CaI-72 trypomastigotes infected in mouse C2C12 cells; type: toxicity, cell-based
[8] = Protein binding in human plasma; type: ADME, cell-free; conditions: read-out: PPB (converted)
[9] = Intrinsic clearance in human liver microsomes assessed as per mg protein; type: ADME, Microsome; conditions: liver microsomes, read-out: CLH
[10] = Aqueous solubility of compound at pH 7.4; type: physicochemical
Trypanosoma cruzi [11] = assay: Antitrypanosomal activity against Trypanosoma cruzi Tulahuen amastigotes measured after 96 hrs by beta-galactosidase reporter gene assay; type: functional, organism-based
Plasmodium falciparum [12] = assay: Antiplasmodial activity against chloroquine-sensitive mefloquine resistant Plasmodium falciparum D6; type: functional, organism-based
Leishmania major [13] = assay: Antileishmanial activity against Leishmania major; type: functional, organism-based
Plasmodium falciparum [14] = assay: Antiplasmodial activity against Plasmodium falciparum W2 after 72 hrs by SYBR Green fluorescence assay; type: functional, organism-based; conditions: W2, 72 h
Trypanosoma cruzi [15] = assay: Antitrypanosomal activity against Trypanosoma cruzi Tulahuen trypomastigotes infected in mouse NIH/3T3 cells measured after 96 hrs by beta-galactosidase reporter gene assay; type: functional, organism-based; conditions: NIH3T3, 96 h
Plasmodium falciparum [16] = assay: Antiplasmodial activity against Plasmodium falciparum TM91C235 after 72 hrs by SYBR Green fluorescence assay; type: functional, organism-based; conditions: TM91C235, 72 h

EC50 (Trypanosoma cruzi [4]) [nM] | fraction unbound [8] | microsomal CLint [9] [µL/min/mg] | solubility ([10]; aqueous solution, read-out: solubility) [µM] | SMILES | selectivity ratio [1] | hepatocyte CLint [2] [µL/min/1e6 cells] | EC50 (Plasmodium falciparum [3]) [nM] | CC50 [5] [nM] | EC50 (Leishmania major [6]) [nM] | selectivity ratio [7] | EC50 (Trypanosoma cruzi [11]) [nM] | EC50 (Plasmodium falciparum [12]) [nM] | EC50 (Leishmania major [13]) [nM] | EC50 (Plasmodium falciparum [14]) [nM] | EC50 (Trypanosoma cruzi [15]) [nM] | EC50 (Plasmodium falciparum [16]) [nM] | solubility ([10]; buffer) [µM]
330 | 0.28 | 43 | 137 (≈ 64.1 µg/mL) | O=S(=O)(c1ccc(-c2ccc3nccc(N[C@@H]4CCCC[C@H]4O)c3c2)cc1)N1CCOCC1 | > 80 | 30 | 400 | > 10000 | > 22000 | > 30 |  |  |  |  |  |  | 
 |  |  |  | CS(=O)(=O)CCNCc1ccc(-c2ccc3ncnc(Nc4ccc(OCc5cccc(F)c5)c(Cl)c4)c3c2)o1 [LAPATINIB] |  |  |  |  |  |  | 1500 | 530 | > 15000 |  |  |  | 
 |  |  |  | CN1CCN(c2ncc(-c3ccc4c(Nc5cnccn5)ccnc4c3)cn2)CC1 |  | 127 | 26 |  | > 15000 |  | 6000 |  | > 15000 | 62 | 6000 | 37 | […]
